From PubChem BioAssay AID2198 (Vanderbilt High Throughput Screening Facility, 2009) come the findings set out here.

The assay concerns the target Muscarinic acetylcholine receptor M5 (Homo sapiens) (UniProt P08912). In words: human M5 positive allosteric modulators, SAR follow-up, cell-based, calcium (AID 2198). The following applies: CHO-K1 hM5, Fluo-4 calcium, ACh EC20 potentiation.

Activity calls are given as the source filed them.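 The calls were made as follows: active = mean EC50 under 30 µM; inactive = the rest.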

Muscarinic acetylcholine receptor M5 (Homo sapiens), sequence (P08912 whole entry, looked up): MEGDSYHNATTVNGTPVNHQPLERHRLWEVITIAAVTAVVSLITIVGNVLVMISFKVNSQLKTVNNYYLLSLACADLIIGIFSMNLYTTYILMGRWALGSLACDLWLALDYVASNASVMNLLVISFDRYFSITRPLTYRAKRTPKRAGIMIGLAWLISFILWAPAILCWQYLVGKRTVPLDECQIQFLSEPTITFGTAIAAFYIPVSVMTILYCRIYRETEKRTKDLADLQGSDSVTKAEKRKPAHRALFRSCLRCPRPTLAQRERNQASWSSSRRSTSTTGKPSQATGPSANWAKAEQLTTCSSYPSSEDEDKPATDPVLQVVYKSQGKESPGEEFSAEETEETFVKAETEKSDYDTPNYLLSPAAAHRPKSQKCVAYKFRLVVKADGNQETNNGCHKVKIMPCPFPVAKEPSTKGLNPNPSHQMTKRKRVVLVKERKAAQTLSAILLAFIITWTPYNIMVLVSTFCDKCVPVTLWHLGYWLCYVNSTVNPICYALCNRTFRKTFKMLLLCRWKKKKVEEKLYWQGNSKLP

As for `O=C1C(=O)N(Cc2ccccc2C(F)(F)F)c2c(F)cccc21`, the EC50 (as a rule, the concentration at which the effect is half-maximal) was > 30 µM (inactive).
In the case of `O=C1C(=O)N(Cc2ccccc2C(F)(F)F)c2ccc(F)cc21` it was > 30 µM (inactive).
On to `O=C1C(=O)N(Cc2ccc(C(F)(F)F)cc2)c2ccc(OC(F)(F)F)cc21`, for which the EC50 is 1.85 µM.
Consider `O=C1C(=O)N(Cc2ccc(C(F)(F)F)cc2)c2ccc(Cl)cc21`, for which the EC50 was 3.3 µM.
In the case of `O=C1C(=O)N(Cc2ccc(OC(F)(F)F)cc2)c2ccc(OC(F)(F)F)cc21`, the EC50 was 1.86 µM.
As to `COc1ccc(CN2C(=O)C(=O)c3cc(OC(F)(F)F)ccc32)cc1`, the EC50 is 1.16 µM.
On to `COc1cccc(CN2C(=O)C(=O)c3c(Cl)ccc(Cl)c32)c1`, for which the EC50 is 7.15 µM.
As for `COc1ccc(CN2C(=O)C(=O)c3ccccc32)cc1`, the EC50 was > 30 µM (inactive).
As to `O=C1C(=O)N(Cc2ccccc2Cl)c2ccc(OC(F)(F)F)cc21`, the EC50 was 4.07 µM.
`O=C1C(=O)N(Cc2ccc(Br)cc2F)c2ccc(OC(F)(F)F)cc21`: the EC50 was > 30 µM (inactive).
Consider `O=C1C(=O)N(Cc2ccc(Br)cc2F)c2c(Cl)cccc21`, for which the EC50 was 4.66 µM.
In the case of `O=C1C(=O)N(Cc2ccc(C(F)(F)F)cc2)c2c(F)cccc21` it was 3.26 µM; in that of `O=C1C(=O)N(Cc2ccc(C(F)(F)F)cc2)c2ccccc21`, 3.19 µM.
Regarding `COc1cccc(CN2C(=O)C(=O)c3cc(OC(F)(F)F)ccc32)c1`, the EC50 is 1.7 µM.
Take `COc1ccc(CN2C(=O)C(=O)c3cccc(Cl)c32)cc1`: the EC50 is 3.96 µM.
As to `Cc1ccccc1CN1C(=O)C(=O)c2cc(OC(F)(F)F)ccc21`, the EC50 was 3.28 µM.
In the case of `O=C1C(=O)N(Cc2ccc(Br)cc2)c2c(F)cccc21`, the EC50 was 1.93 µM.
